Test results from US20230346889A9, “TREATMENT OF ACUTE HEART FAILURE” (AnaCardio R&D AB, priority 2019, published 2023).
Marks after values point to notes of the source that are not given here.

Legend:
[1] = system: patients with advanced CHF and reduced EF; assay: Trial serum and plasma biomarkers; assay type: in vivo, human
Description: Blood samples were collected in 1) morning fasting state baseline, 2) after standardized breakfast prior to intervention, 3) after 30 min infusion, 4) after 60 min infusion and 5) after 120 min infusion, 6) 30 min after completed infusion and 7) at follow-up 2-5 days later (FIG. 2). Blood was collected in ethylenediaminetetraacetic acid (EDTA) and serum tubes and immediately centrifuged and plasma and serum was aliquoted and stored in −70° C. until analysis.
Creatinine clearance was calculated according to the Cockcroft-Gault equation; ([140-age] * weight in kg*1.23)/creatinine*0.85 (if […]). Renal function was measured by creatinine and cystatin-C at Karolinska University Hospital core laboratory. NT-proBNP was analyzed by proBNPII (Roche Diagnostics, Bromma, Sweden). Plasma glucose measurements were from EDTA-containing whole venous blood tubes and analyzed with a photometric point-of-care technique, the HemoCue® Glucose 201 RT (Ängelholm, Sweden). Troponin T was analyzed in the Karolinska University Hospital core laboratory.

[2] = system: dogs with acute myocardial infarction; details: US2004014671A1; cited from earlier work
[3] = Baseline, bracketed range in line below

**Q.** Which results are given for `CCCCCCCC(=O)OC[C@H](NC(=O)[C@H](CO)NC(=O)CN)C(=O)N[C@@H](Cc1ccccc1)C(=O)N[C@@H](CC(C)C)C(=O)N[C@@H](CO)C(=O)N1CCC[C@H]1C(=O)N[C@@H](CCC(=O)O)C(=O)N[C@@H](Cc1cnc[nH]1)C(=O)N[C@@H](CCC(N)=O)C(=O)N[C@@H](CCCNC(=N)N)C(=O)N[C@H](C(=O)N[C@@H](CCC(N)=O)C(=O)N[C@@H](CCC(N)=O)C(=O)N[C@@H](CCCNC(=N)N)C(=O)N[C@@H](CCCCN)C(=O)N[C@@H](CCC(=O)O)C(=O)N[C@@H](CO)C(=O)N[C@@H](CCCCN)C(=O)N[C@@H](CCCCN)C(=O)N1CCC[C@H]1C(=O)N1CCC[C@H]1C(=O)N[C@@H](C)C(=O)N[C@@H](CCCCN)C(=O)N[C@@H](CC(C)C)C(=O)N[C@@H](CCC(N)=O)C(=O)N1CCC[C@H]1C(=O)N[C@@H](CCCNC(=N)N)C(=O)O)C(C)C` [Ghrelin]?
**A.** ALAT ([1]; 2-5 days FU): 0.31 ukat/L; ASAT ([1]; 2-5 days FU): 0.42 ukat/L; Cystatin C ([1]; 2-5 days FU): 1.59 ± 0.52* mg/L; GT ([1]; 2-5 days FU): 0.83 ukat/L; Haematocrit ([1]; 2-5 days FU): 41 ± 5%; INR among non-warfarin treated ([1]; 2-5 days FU): 1.0; INR among warfarin treated ([1]; 2-5 days FU): 2.6; Insulin (non-fasting) ([1]; 2-5 days FU): 30 mlE/L; NT-proBNP ([1]; 2-5 days FU): 2450* ng/L; Potassium ([1]; 2-5 days FU): 4.3 ± 0.4 mmol/L; Sodium ([1]; 2-5 days FU): 138 ± 12 mmol/L; Triglycerides ([1]; 2-5 days FU): 1.6 mmol/L; Troponin T ([1]; 2-5 days FU): 31 ± 38 ng/L; White blood cell count ([1]; 2-5 days FU): 7.4 ± 2.0 109/L; hsCRP ([1]; 2-5 days FU): 3.0 mg/L; NT-proBNP ([1]; 2-5 days after infusion): remained elevated; ALAT ([1]; 30′ after infusion): 0.32 ukat/L; ASAT ([1]; 30′ after infusion): 0.43 ukat/L; Cystatin C ([1]; 30′ after infusion): 1.54 ± 0.41 mg/L; GT ([1]; 30′ after infusion): 0.82 ukat/L; NT-proBNP ([1]; 30′ after infusion): 2820 ng/L; Troponin T ([1]; 30′ after infusion): 21 ± 10 ng/L; hsCRP ([1]; 30′ after infusion): 3.5 mg/L; Cystatin C ([1]; Baseline): 1.45 ± 0.44 mg/L; Troponin T ([1]; Baseline): 21 ± 9 ng/L; ALAT ([1]; Baseline (Table 12)): 0.31 ukat/L; ASAT ([1]; Baseline (Table 12)): 0.41 ukat/L; Cystatin C ([1]; Baseline (Table 12)): 1.45 ± 10.44 mg/L; GT ([1]; Baseline (Table 12)): 0.77 ukat/L; Haematocrit ([1]; Baseline (Table 12)): 40 ± 4%; INR among non-warfarin treated ([1]; Baseline (Table 12)): 1.1; INR among warfarin treated ([1]; Baseline (Table 12)): 2.2; Insulin (non-fasting) ([1]; Baseline (Table 12)): 36 mlE/L; NT-proBNP ([1]; Baseline (Table 12)): 2080 ng/L; Sodium ([1]; Baseline (Table 12)): 139 ± 13 mmol/L; Triglycerides ([1]; Baseline (Table 12)): 1.4 mmol/L; Troponin T ([1]; Baseline (Table 12)): 21 ± 10 ng/L; White blood cell count ([1]; Baseline (Table 12)): 7.4 ± 1.9 109/L; hsCRP ([1]; Baseline (Table 12)): 2.7 mg/L; ALAT [1, 3]: 0.31 ukat/L; ASAT [1, 3]: 0.41 ukat/L; GT [1, 3]: 0.77 ukat/L; hsCRP [1, 3]: 2.7 mg/L; NT-proBNP ([1]; Baseline, bracketed range in lines below): 2080 ng/L; ALAT ([1]; Infusion + 30′): 0.31 ukat/L; ASAT ([1]; Infusion + 30′): 0.40 ukat/L; Cystatin C ([1]; Infusion + 30′): 1.46 ± 0.44 mg/L; GT ([1]; Infusion + 30′): 0.78 ukat/L; NT-proBNP ([1]; Infusion + 30′): 2220 ng/L; Troponin T ([1]; Infusion + 30′): 21 ± 9 ng/L; hsCRP ([1]; Infusion + 30′): 3.0 mg/L; ALAT ([1]; Infusion + 60′): 0.31 ukat/L; ASAT ([1]; Infusion + 60′): 0.44 ukat/L; Cystatin C ([1]; Infusion + 60′): 1.55 ± 0.47* mg/L; GT ([1]; Infusion + 60′): 0.79 ukat/L; NT-proBNP ([1]; Infusion + 60′): 2340* ng/L; Troponin T ([1]; Infusion + 60′): 22 ± 10 ng/L; hsCRP ([1]; Infusion + 60′): 3.0 mg/L; ALAT ([1]; Infusion + 120′): 0.31 ukat/L; ASAT ([1]; Infusion + 120′): 0.41 ukat/L; Cystatin C ([1]; Infusion + 120′): 1.57 ± 0.43* mg/L; GT ([1]; Infusion + 120′): 0.80 ukat/L; NT-proBNP ([1]; Infusion + 120′): 2630* ng/L; Troponin T ([1]; Infusion + 120′): 21 ± 10 ng/L; hsCRP ([1]; Infusion + 120′): 3.3 mg/L; Cystatin C ([1]; during infusion): increased; NT-proBNP ([1]; during infusion): increased; improvement of CO [2]: not
